biological target: T1, wild-type HIV-1 protease (Human immunodeficiency virus type 1 group M subtype B, UniProt P04585); test: Assay for Inhibition of Microbial Expressed HIV Protease (peptide substrate cleavage, LC-MS/MS readout); assay type: biochemical; conditions: E. coli expressed wild-type HIV-1 protease, mean of at least two independent experiments, read-out: HIV Pr Enzyme HIV1 PR IC50
T1 construct: Escherichia coli expressed wild-type HIV-1 protease protein
Procedure: Assay for Inhibition of Microbial Expressed HIV Protease
Inhibition of Escherichia coli expressed wild-type HIV-1 protease protein was carried out with a peptide substrate [Val-Ser-Gln-Asn-(βnaphtyl)Ala-Pro-Ile-Val]. The inhibitor compound was preincubated with HIV-1 protease enzyme in assay buffer (50 mM sodium acetate, pH 5.5, 100 mM NaCl, and 0.1% BSA) for 30 minutes at room temperature. Peptide substrate was added to 400 μM in a total volume of 20 μL containing […] HIV-1 protease (final) after which the reaction was incubated for 1 hour at 30° C. […] The extent of inhibition of the reaction was determined from the peak area of the products.
Data shown in the table reflects the mean of at least two independent experiments.

Point of comparison: `N=C1N[C@](CCCC(F)(F)F)(c2ccc(F)cc2)C(=O)N1Cc1ccc(C(F)(F)F)c(C(=O)N2CCN3C(=O)OCC3C2)c1` (stereo partly drawn) [Compound 87, 7-{[5-{[(4R)-4-(4-fluorophenyl)-2-imino-5-oxo-4-(4,4,4-trifluoro-butyl)imidazolidin-1-yl]methyl}-2-(trifluoromethyl)phenyl]carbonyl}hexahydro[1,3] oxazolo[3,4-a]pyrazin-3-one], IC50 14.8 nM. Against it:
- N=C1NC(c2ccccc2)(c2ccccc2)C(=O)N1Cc1cccc(C(=O)N2CCN(c3ncccn3)CC2)c1 [Compound 230, 2-imino-5,5-diphenyl-3-{3-[(4-pyrimidin-2-ylpiperazin-1-yl)carbonyl]benzyl} imidazolidin-4-one] — within 1.5-fold, 13.1 nM
- CCc1nnc2n1CCN(C(=O)c1cc(CN3C(=N)N[C@](CCCC(F)(F)F)(c4ccc(F)cc4)C3=O)ccc1C(F)(F)F)C2 [Compound 65, (5R)-3-{3-[(3-ethyl-5,6-dihydro[1,2,4]triazolo[4,3-a]pyrazin-7(8H)-yl)carbonyl]-4-(trifluoromethyl)benzyl}-5-(4-fluorophenyl)-2-imino-5-(4,4,4-trifluorobutyl)imidazolidin-4-one] — 2-fold lower, 7.39 nM
- COc1ccc(CN2C(=N)NC(c3ccc(Cl)cc3)(c3ccc(Cl)cc3)C2=O)cc1C(=O)N1Cc2nccnc2C1 [Compound 369, 5,5-bis(4-chlorophenyl)-3-[3-(5,7-dihydro-6H-pyrrolo[3,4-b]pyrazin-6-ylcarbonyl)-4-methoxybenzyl]-2-iminoimidazolidin-4-one] — 2.1-fold higher, 31.4 nM
- N=C1NC(c2ccccc2)(c2ccccc2)C(=O)N1Cc1cccc(C(=O)N2CCc3ccc(C(F)(F)F)cc3C2)c1 [Compound 334, 2-imino-5,5-diphenyl-3-(3-{[7-(trifluoromethyl)-3,4-dihydroisoquinolin-2(1H)-yl]carbonyl}benzyl) imidazolidin-4-one] — 4.7-fold higher, 70 nM
- N=C1N[C@](CCCC(F)(F)F)(c2ccc(F)cc2)C(=O)N1Cc1ccc(C(F)(F)F)c(C(=O)N2Cc3cnc(-c4cccc(F)c4)nc3C2)c1 [Compound 86, (5R)-5-(4-fluorophenyl)-3-[3-{[2-(3-fluorophenyl)-5,7-dihydro-6H-pyrrolo[3,4-d]pyrimidin-6-yl]carbonyl}-4-(trifluoromethyl)-benzyl]-2-imino-5-(4,4,4-trifluorobutyl)imidazolidin-4-one] — within 1.5-fold, 14.5 nM
- N=C1NC(c2ccc(F)cc2)(c2ccc(F)cc2)C(=O)N1Cc1cccc(C(=O)N2CCC(n3c(=O)[nH]c4nc(F)ccc43)CC2)c1 [Compound 316, 1-{1-[(3-{[4,4-bis(4-fluorophenyl)-2-imino-5-oxoimidazolidin-1-yl]methyl}phenyl)carbonyl]piperidin-4-yl}-5-fluoro-1,3-dihydro-2H-imidazo[4,5-b]pyridin-2-one] — 3.6-fold higher, 52.9 nM
- N#Cc1ncc2c(n1)CN(C(=O)c1cc(CN3C(=N)NC(c4ccccc4)(c4ccccc4)C3=O)ccc1Cl)C2 [Compound 367, 6-({2-chloro-5-[(2-imino-5-oxo-4,4-diphenylimidazolidin-1-yl)methyl]phenyl}carbonyl)-6,7-dihydro-5H-pyrrolo[3,4-d]pyrimidine-2-carbonitrile] — 2.9-fold lower, 5.13 nM
- CN(C)c1ccc(-c2ncc3c(n2)CN(C(=O)c2cc(CN4C(=N)N[C@](CCCC(F)(F)F)(c5ccc(F)cc5)C4=O)ccc2C(F)(F)F)C3)cn1 [Compound 16, (5R)-3-[3-({2-[6-(dimethylamino)pyridin-3-yl]-5,7-dihydro-6H-pyrrolo[3,4-d]pyrimidin-6-yl}carbonyl)-4-(trifluoromethyl)benzyl]-5-(4-fluorophenyl)-2-imino-5-(4,4,4-trifluorobutyl)imidazolidin-4-one] — 7.5-fold lower, 1.98 nM
- N=C1N[C@](CCCC(F)(F)F)(c2ccc(F)cc2)C(=O)N1Cc1ccc(C(F)(F)F)c(C(=O)N2Cc3cnc(C(F)(F)F)nc3C2)c1 [Compound 73, (5R)-5-(4-fluorophenyl)-2-imino-5-(4,4,4-trifluorobutyl)-3-[4-(trifluoromethyl)-3-{[2-(trifluoro-methyl)-5,7-dihydro-6H-pyrrolo-[3,4-d]pyrimidin-6-yl]carbonyl}-benzyl]imidazolidin-4-one] — 1.6-fold lower, 9.29 nM
